From US20070254907A1, “COMPOSITIONS AND METHODS FOR CONTROLLING INFESTATION” (HATCHTECH PTY LTD, priority 2003, published 2007)
Like-named read-outs stand apart in the source and are kept apart here.

What was measured:
Plutella xylostella eggs = assay: whole plant or invertebrate; type: in vivo; conditions: for % Inhibition: relative to controls
Experimental: The ovicidal efficacy of 2-acetyl-1-tetralone was also tested against Plutella eggs.

lice eggs = assay: whole plant or invertebrate; type: in vivo; conditions: for Activity class 0 = inactive 1 = low 2 = med 3 = high: listed as of 10 mM; for inhibition at 10000 µM: Pediculus humanus, read-out: Ovicidal activity %
[1] = system: Lice (L) and Plutella (P) eggs; assay: whole plant or invertebrate; conditions: read-out: Ovicidal activity %
[2] = system: Helicoverpa armigera eggs; assay: Egg hatching of Helicoverpa armigera; conditions: for Number hatched / Number unhatched / % Inhibition: Table 13; for % Inhibition: relative to the control (100% MeOH)
Experimental: A range of concentrations were made up in water and the eggs placed in the solutions for approximately 2-10 seconds. The eggs which had been laid on cloth were then blotted dry and placed in an incubator at 26° C. for 3-4 days until hatch. Hatch rates were then assessed compared to a water only treated control (FIG. 5).
The compound was dissolved in 100% diethoxyglycol and diluted to a final concentration of 1% in water.
Several hundred Helicoverpa armigera eggs (Tatura×Toowoomba strains) were collected, that had been laid on fine mesh cloth over a 24 hour period.
Batches of Helicoverpa eggs were exposed to a specific inhibitor solution for between 2-10 seconds the excess solution drained by blotting with dry tissue paper. The egg masses were then placed in a humid box at 25 degrees until egg hatch. Control eggs were exposed to absolute methanol as described above. At day 6 post laying the eggs were assessed from the different treatments and the percentage of egg hatch determined relative to the control as shown in Table 12.
Batches of Helicoverpa eggs were then exposed to a specific inhibitor solution for between 2-10 seconds the excess solution drained by blotting with dry tissue paper. The egg masses were then placed in a humid box at 25° C. until egg hatch. Control eggs were exposed to absolute methanol as described above. At day 6 post laying the eggs were assessed from the different treatments and the percentage of egg hatch determined relative to the control as shown in Table 13.

head lice eggs = assay: Head lice egg hatching with formulated compound; type: in vivo; conditions: 20 mM formulation, 10 minutes exposure, n=10 eggs
Experimental: Gravid female lice were permitted to lay eggs. The eggs were counted, inspected under a light microscope and all eggs that appeared undamaged were allocated to one of two treatment groups. One group was exposed to 5′-dimethyl-2,2′-dipyridyl in a formulation, while the second group was exposed to the formulation only. The protocol was as follows:
Treatments: 5'-dimethyl-2,2'dipyridyl (20mM) n=10
Vehicle control only n=10
Exposure time: 10 minutes
Wash time: 1 minute @˜37° C.
Incubation: All eggs were placed at 31° C. in a humid incubator and monitored for signs of development specifically of the eye and subsequent hatching, see Table 21.

[3] = Table 10, eggs laid on cloth, 1 mM
[4] = Table 10, eggs laid on cloth, 10 mM
[5] = Table 11, eggs laid on parafilm, 1 mM
[6] = Table 11, eggs laid on parafilm, 10 mM
[7] = Plutella xylostella, Plutella (P), 10 mM, read-out: Ovicidal activity %
[8] = Plutella (P), listed as of 10 mM

SMILES: NCC(O)c1ccccc1 (stereo not shown) [2-Amino-1-phenyl ethanol]
- Ovicidal activity % (Plutella xylostella eggs; in vivo): 0.00%

SMILES: Cc1ccccn1 [2-Picoline]
- Activity class 0 = inactive 1 = low 2 = med 3 = high (lice eggs; Lice (L)): 0 (A pLD50 value less than 2 is considered inactive (Class 0))
- inhibition at 10000 µM (lice eggs; Lice (L), 10 mM): 0%

SMILES: c1ccc(Cc2ccccn2)cc1 [2-benzyl-pyridine]
- inhibition at 10000 µM [1]: 0%

SMILES: O=C(CC(=O)C(F)(F)F)c1ccccc1 [4,4,4-Trifluoro-1-phenyl-butane-1,3-dione]
- inhibition at 10000 µM [1]: 0%

SMILES: Cc1ccnc(-c2cc(C)ccn2)c1 [4,4′-dimethyl-2,2′-dipyridyl]
- effect on egg hatching of Plutella xylostella (words) (Plutella xylostella eggs; 10 and 1 mM): significantly inhibit egg hatching
- Ovicidal activity % (Plutella xylostella eggs; Plutella (P), 0.1 mM): 65.00%
- Ovicidal activity % (Plutella xylostella eggs; Plutella (P), 1 mM): 100.00%
- Ovicidal activity % (Plutella xylostella eggs; Plutella (P), 10 mM): 100.00%
- Activity class 0 = inactive 1 = low 2 = med 3 = high (Plutella xylostella eggs; Plutella (P), listed as of 1 mM): 3 (a pLD50 greater than 4 is considered strongly active (Class 3))
- Number hatched (Plutella xylostella eggs; [3]): 0
- Number unhatched (Plutella xylostella eggs; [3]): 30
- % Inhibition (Plutella xylostella eggs; [3]): 100%
- Number hatched (Plutella xylostella eggs; [4]): 0
- Number unhatched (Plutella xylostella eggs; [4]): 36
- % Inhibition (Plutella xylostella eggs; [4]): 100%
- Number hatched (Plutella xylostella eggs; [5]): 10
- Number unhatched (Plutella xylostella eggs; [5]): 107
- % Inhibition (Plutella xylostella eggs; [5]): 91%
- Number hatched (Plutella xylostella eggs; [6]): 0
- Number unhatched (Plutella xylostella eggs; [6]): 139
- % Inhibition (Plutella xylostella eggs; [6]): 100%
- effect on egg hatching of Helicoverpa armigera (words) ([2]; 1 mM): significant inhibition of egg hatching
- effect on egg hatching of Helicoverpa armigera (words) ([2]; 10 mM): significant inhibition of egg hatching
- Number hatched ([2]; 1 mM): 23
- Number unhatched ([2]; 1 mM): 29
- % Inhibition ([2]; 1 mM): 66%
- Number hatched ([2]; 10 mM): 8
- Number unhatched ([2]; 10 mM): 43
- % Inhibition ([2]; 10 mM): 84%

SMILES: c1cnc2ccc3ncccc3c2c1 [4,7-phenanthroline]
- inhibition at 10000 µM [1]: 0%

SMILES: c1ccc(-c2cc(N3CCOCC3)c3ccccc3n2)nc1 [4-Morpholin-4-yl-2-pyridin-2-yl-quinoline]
- inhibition at 10000 µM [1]: 0%

SMILES: CC(=O)NO [Acetohydroxamic acid]
- inhibition at 10000 µM (Plutella xylostella eggs; [7]): 0%
- Logit calc pLD50 (Plutella xylostella eggs; in vivo): 0.7
- Pref pLD50 (Plutella xylostella eggs; in vivo): <2

SMILES: O=C(NO)c1ccccc1 [Benzohydroxaminic acid]
- Ovicidal activity % (Plutella xylostella eggs; Plutella (P), 10 mM): 0.00%
- Activity class 0 = inactive 1 = low 2 = med 3 = high (Plutella xylostella eggs; [8]): 0 (A pLD50 value less than 2 is considered inactive (Class 0))

SMILES: CC(=O)CC(=O)c1ccccc1 [Benzoylacetone]
- inhibition at 1000 µM (Plutella xylostella eggs; Plutella xylostella, Plutella (P), 1 mM, read-out: Ovicidal activity %): 0%
- inhibition at 10000 µM (Plutella xylostella eggs; [7]): 90%

SMILES: CCCC(N)CO [D-L-2-Amino-1-pentanol]
- Ovicidal activity % (Plutella xylostella eggs; Plutella (P), 10 mM): 0.00%
- Activity class 0 = inactive 1 = low 2 = med 3 = high (Plutella xylostella eggs; [8]): 0 (A pLD50 value less than 2 is considered inactive (Class 0))
- Logit calc pLD50 (Plutella xylostella eggs; in vivo): 0.7
- Pref pLD50 (Plutella xylostella eggs; in vivo): <2

SMILES: c1ccc(CNCc2ccccn2)nc1 [Di(2-picolyl) amine]
- Activity class 0 = inactive 1 = low 2 = med 3 = high (lice eggs; Lice (L)): 0 (A pLD50 value less than 2 is considered inactive (Class 0))
- inhibition at 10000 µM (lice eggs): 0%

SMILES: O=C(CC(=O)c1ccccc1)c1ccccc1 [Dibenzoyl methane]
- inhibition at 10000 µM (Plutella xylostella eggs; Plutella xylostella, read-out: Ovicidal activity %): 90%

SMILES: CCOC(=O)CNC(C)=O [Ethyl-acetaimidoacetate]
- Ovicidal activity % (Plutella xylostella eggs; Plutella (P), 10 mM): 0.00%
- Activity class 0 = inactive 1 = low 2 = med 3 = high (Plutella xylostella eggs; [8]): 0 (A pLD50 value less than 2 is considered inactive (Class 0))

SMILES: COC(=O)CN [Glycine methyl ester]
- inhibition at 10000 µM (Plutella xylostella eggs; [7]): 0%
- Logit calc pLD50 (Plutella xylostella eggs; in vivo): 0.7
- Pref pLD50 (Plutella xylostella eggs; in vivo): <2

SMILES: Cc1ccc(-c2ccc(C)cn2)nc1 [Ha44]
- Stage of development: number of eggs with eye development (head lice eggs; Day 1): 1 eye development
- Stage of development: number of eggs with no eye dev. (head lice eggs; Day 1): 9 no eye dev.
- Stage of development: number of eggs hatched (head lice eggs; Day 4): 1 hatched
- Stage of development: number of eggs with eye development (head lice eggs; Day 4): 1 eye development
- Stage of development: number of eggs with no eye dev. (head lice eggs; Day 4): 8 no eye dev.
- Stage of development: number of eggs with eye development (head lice eggs; Day 5): 1 eye development
- Stage of development: number of eggs with no eye dev. (head lice eggs; Day 5): 8 no eye dev.
- Stage of development: number of eggs with eye development (head lice eggs; Day 6): 1 eye development
- Stage of development: number of eggs with no eye dev. (head lice eggs; Day 6): 8 no eye dev.
- Stage of development: number of eggs with eye development (head lice eggs; Day 7): 1 eye development
- Stage of development: number of eggs with no eye dev. (head lice eggs; Day 7): 8 no eye dev.
- Stage of development: number of eggs with eye development (head lice eggs; Day 12): 1 eye development
- Stage of development: number of eggs with no eye dev. (head lice eggs; Day 12): 8 no eye dev.
